{"source": "paper PMC10291556", "about": "(Journal of Medicinal Chemistry, 2023)", "key": {"A2780cisR": {"test_system": "A2780cisR", "assay": "MTT antiproliferative assay, 72 h", "format": "cell-based, human", "conditions": "read-out: IC50 A2780cisR", "procedure": "(§1) Cells were treated with the tested compounds in a final volume of 200 μL/well. […] Calbiochem, Darmstadt, Germany) was added, and the cells were incubated for an additional 2–4 h. The medium was removed, and the insoluble formazan product was dissolved in 100 μL/well DMSO. The absorbance was read at 570 nm (vs 620 nm) using an Absorbance Reader (SUNRISE TECAN SCHOELLER). The read values were converted to the percentage of control. […] All experiments were made in triplicate."}, "A2780": {"test_system": "A2780", "assay": "MTT antiproliferative assay, 72 h", "format": "cell-based, human", "conditions": "read-out: IC50 A2780", "procedure": "as §1"}, "HCT-116": {"test_system": "HCT-116", "assay": "MTT antiproliferative assay, 72 h", "format": "cell-based, human", "conditions": "read-out: IC50 HCT-116", "procedure": "as §1"}, "HeLa": {"test_system": "HeLa", "assay": "MTT antiproliferative assay, 72 h", "format": "cell-based, human", "procedure": "as §1"}, "MCF-7": {"test_system": "MCF-7", "assay": "MTT antiproliferative assay, 72 h", "format": "cell-based, human", "conditions": "read-out: IC50 MCF-7", "procedure": "as §1"}, "MDA-MB-231": {"test_system": "MDA-MB-231", "assay": "MTT antiproliferative assay, 72 h", "format": "cell-based, human", "conditions": "read-out: IC50 MDA-MB-231", "procedure": "as §1"}, "MRC-5": {"test_system": "MRC-5", "assay": "MTT assay in non-cancerous fibroblasts, 72 h", "format": "cell-based", "conditions": "non-cancerous human fibroblasts, 72 h incubation, mean ± SD", "procedure": "as §1, with “The absorbance was read at 570 nm (vs 620 nm) using an Absorbance Reader (SUNRISE TECAN SCHOELLER).” left out"}, "HeLa cells [1]": {"test_system": "HeLa cells", "assay": "Cellular accumulation of platinum (ICP-MS)", "format": "cell-based, human", "procedure": "Briefly, 3 × 10^6 cells were seeded in 100 mm culture dishes and grown overnight. The cells were exposed to the tested complexes at indicated concentrations for indicated periods. […] The pellets were digested using the microwave acid (HCl) digestion system (CEM Mars). The platinum quantity taken up by the cells was determined by inductively coupled plasma mass spectrometry (ICP–MS). All experiments were performed in triplicate."}, "[2]": {"assay": "Partition coefficient, shake-flask method", "format": "physicochemical", "conditions": "octanol/water", "procedure": "The “shake flask” method was used to measure the partition coefficients (P) of platinum compounds. The compounds were dissolved in octanol-saturated water (OSW) containing 200 mM NaCl. […] After careful separation of the layers with a fine-tip pipet, the Pt content in individual phases was determined by flameless atomic absorption spectrometry. The partition coefficients were calculated as the concentration ratio of the compound in the octanol layer to that in the aqueous layer, log P = log([Pt]WSO/[Pt]OSW)."}, "[3]": {"test_system": "DNA isolated from HeLa cells", "assay": "Pt associated with DNA isolated from treated HeLa cells", "format": "cell-based, human", "conditions": "1 µM compound, 6 h, mean ± SD", "source_text": "page 16: Table S1: […] concentration of tested compounds for 6 ha. […] Figure S19: A. Representative histograms obtained by flow cytometric analysis of calreticulin exposure in HeLa cells treated with indicated compounds. B. An example of gating DAPI negative population. Only DAPI-negative cells were taken for the evaluation."}, "HeLa cells [4]": {"test_system": "HeLa cells", "assay": "ATP secretion", "format": "cell-based, human", "conditions": "1× and 3× IC50, 24 h", "quoted_text": "HeLa cells were seeded in 24-well plates at a density of 10^4 cells/well, grown overnight, and then treated with the tested complexes for 24 h. Aliquots of culture medium samples were withdrawn, centrifugated (500g, 3 min), and processed with ATP Bioluminescence Assay Kit CLS II, Roche. Briefly, 50 μL of cell-free medium samples were added to a 96-well flat white plate, and an equal volume of luciferase reagent was added. The luminescence was measured immediately on a plate reader (SPARK, Tecan). The blank (no ATP) was subtracted from the raw data. ATP concentrations were obtained from the standard curve and normalized to cell counts and control. The data are shown as MEAN of 4–5 independent measurements."}, "HeLa cells [5]": {"test_system": "HeLa cells", "assay": "HMGB1 release (ELISA)", "format": "cell-based, human", "conditions": "1×, 2×, 3× IC50, 20 h", "quoted_text": "(B) Extracellular level of HMGB1. […] The data in panels A, B, and C are shown as a mean of 4–5 measurements ± SD. Statistical significance from untreated control was determined with the Student t-test (*p ≤ 0.05, **p ≤ 0.01, and ^#p ≤ 0.001).\nHeLa cells were seeded in 24-well plates at a density of 10^4 cells/well and grown overnight. The medium was removed, and a fresh medium (DMEM, 1% BSA, no FBS) containing indicated concentrations of tested complexes was added (300 μL). Following a 20 h treatment, medium samples were withdrawn, and the HMGB1 content was determined using an HMGB1 ELISA Kit (IBL international) following the instructions for use. Cell counts in corresponding wells were determined using Automated Cell Counter (Bio-Rad). HMGB1 concentrations were normalized to cell counts and to the value of untreated control. The experiment was performed twice with duplicate readings."}, "HeLa cells [6]": {"test_system": "HeLa cells", "assay": "Calreticulin exposure (flow cytometry)", "format": "cell-based, human", "conditions": "3× IC50, 16–18 h, DAPI-negative cells", "quoted_text": "Following the treatment, the cells were harvested (trypsin), washed with FACS buffer (PBS, BSA 1%, and FBS 2%), and incubated with Alexa Fluor 488 Anti-Calreticulin antibody for 40 min at 4 °C. The buffer was removed (CFG, 300 g, 3 min) and replaced with FACS buffer containing DAPI (1 μg mL^–1, 20 min), and the cells were analyzed with flow cytometry (BD FACS Verse) and FCS Express 6 (DeNovo Software, Glendale, CA). Calreticulin fluorescence histograms were analyzed in the DAPI-negative (intact membrane) cell population."}, "[7]": {"test_system": "HeLa cells / Thp-1/PMA macrophages", "assay": "Phagocytosis of treated HeLa cells by Thp-1/PMA macrophages", "format": "cell-based, human", "conditions": "HeLa treated 24 h at 1× or 3× IC50,72h, co-incubated 2.5 h with Thp-1/PMA macrophages", "procedure": "Figure 8 Hallmarks of ICD. (A) Extracellular ATP levels in HeLa cell supernatants. […] (B) Extracellular level of HMGB1. […] (C) Calreticulin exposure to the cell surface. […] The surface calreticulin exposure was determined in 4′,6-diamidino-2-phenylindole dihydrochloride (DAPI)-negative cell population. Relative fluorescence intensity was calculated as the median fluorescence of the population of treated cells/median fluorescence of untreated control cells. The data in panels A, B, and C are shown as a mean of 4–5 measurements ± SD. Statistical significance from untreated control was determined with the Student t-test (*p ≤ 0.05, **p ≤ 0.01, and ^#p ≤ 0.001). (D) Quantitative evaluation of phagocytosis of HeLa cells treated with the investigated compounds by human Thp-1/PMA macrophages (analyzed by flow cytometry). […] Error bars are the SEMs calculated from three independent experiments. The stars denote a significant difference from untreated control (*p ≤ 0.05, **p ≤ 0.01) as calculated by the […] Student t-test. […]\nHuman monocytic leukemia cells Thp-1 (obtained from American Type Culture Collection, ATCC) were differentiated into macrophages with phorbol 12-myristate 13-acetate (PMA, 100 nM) for 24 h. […] Phagocytosis was evaluated using flow cytometry (BD FACSVerse), and data were analyzed with FCS Express 7 (DeNovo software; Glendale, CA). […]"}, "[8]": {"test_system": "peritoneal carcinomatosis", "parameters": "method as in PMID 20535526", "conditions": "BD-IX rats; cited from earlier work"}, "oral cancer xenograft": {"test_system": "oral cancer xenograft", "parameters": "method as in PMID 33305724", "conditions": "BALB/c nude mice; cited from earlier work"}, "[9]": {"assay": "MTT assay in non-cancerous fibroblasts, 72 h", "format": "cell-based", "conditions": "MRC-5 cells (non-cancerous fibroblasts), non-cancerous human fibroblasts, 72 h incubation, mean ± SD", "procedure": "as §1, with “The absorbance was read at 570 nm (vs 620 nm) using an Absorbance Reader (SUNRISE TECAN SCHOELLER).” left out"}, "HeLa cells [10]": {"test_system": "HeLa cells", "assay": "Mitochondrial membrane potential (TMRE, flow cytometry)", "format": "cell-based, human", "conditions": "10× IC50, 1 h, vs untreated control", "procedure": "Figure 4 Changes in the mitochondrial membrane potential Δψm in HeLa cells. The cells were treated with Pt compounds at the concentrations corresponding to 10× IC50 for 1 h and subsequently stained with TMRE. The fluorescence was measured by flow cytometry. Data represents mean ± SD from three independent experiments, *p < 0.01.\nHeLa cells were seeded (6-well plates, 3 × 10^5 cells/well), grown overnight, and then treated with the tested compounds for 1 h. The medium was removed, and a fresh medium containing TMRE (Thermo Fisher Scientific) at a final concentration of […] in 500 μL was added. The cells were incubated for 30 min at 37 °C and then harvested using trypsin. TMRE fluorescence was measured with a fluorescence-activated cell sorting (FACS) Verse flow cytometer (Becton Dickinson), and the data were analyzed using the ModFit LT 4.1 (Verity Software House) software. The experiment was performed in triplicate."}, "COX in HeLa cells": {"test_system": "COX in HeLa cells", "assay": "COX activity assay (kit) in treated cells", "format": "cell-based, human", "conditions": "24 h, 1× IC50,72h, vs untreated control", "procedure": "The results are expressed relative to the COX activity of untreated control.\nHeLa cells were seeded in 6-well plates at a density of 10^5 cells/well and incubated overnight. The cells were treated with the tested compounds at concentrations corresponding to 1× IC50. Following a 24 h treatment, the cells were lyzed with radioimmunoprecipitation assay (RIPA) buffer supplemented with proteinase inhibitors on ice for 10 min. The extracts were cleared with centrifugation (12,000g/5 min), and protein content was determined using Bradford assay. COX activity was determined with a COX Activity Assay Kit (Abcam). 6 μg of protein was used in the reaction. The experiment was set up according to the manufacturer’s instructions. The fluorescence (Ex/Em 535/587 nm) was read in a kinetic mode, and the COX inhibition was expressed as a percentage of the activity of the untreated control."}, "tumor cells": {"test_system": "tumor cells", "conditions": "cited from earlier work"}, "[11]": {"conditions": "MTT, 72 h incubation, mean ± SD"}}, "note": "Read-outs that look alike come from different tables or passages of the source.", "data": [{"smiles": "Cc1c(C)c2cccnc2c2ncccc12.N[C@H]1CCCC[C@@H]1N.[Pt]", "note": "[complex 1, [Pt(1S,2S-diaminocyclohexane)(5,6-dimethyl-1,10-phenanthroline)]^2+]", "values": [{"measurement": "IC50", "setting": "A2780cisR; [11]", "value": "0.06 ± 0.01", "unit": "µM"}, {"measurement": "IC50", "setting": "A2780; [11]", "value": "0.19 ± 0.04", "unit": "µM"}, {"measurement": "IC50", "setting": "HCT-116; [11]", "value": "0.08 ± 0.01", "unit": "µM"}, {"measurement": "IC50", "setting": "HeLa; MTT, 72 h incubation, mean ± SD, read-out: IC50 HeLa", "value": "0.37 ± 0.01", "unit": "µM"}, {"measurement": "IC50", "setting": "MCF-7; [11]", "value": "0.7 ± 0.1", "unit": "µM"}, {"measurement": "IC50", "setting": "MDA-MB-231; [11]", "value": "0.24 ± 0.03", "unit": "µM"}, {"measurement": "IC50", "setting": "MRC-5", "value": "0.17 ± 0.04", "unit": "µM"}, {"measurement": "cellular uptake 0.1 μM/24 h", "setting": "HeLa cells [1]; 0.1 μM complex, 24 h", "value": "4.4 ± 0.5", "unit": "ng Pt/10^6 cells"}, {"measurement": "cellular uptake 1 μM/6 h", "setting": "HeLa cells [1]; 1 μM complex, 6 h", "value": "13 ± 3", "unit": "ng Pt/10^6 cells"}, {"measurement": "cellular uptake 10 μM/6 h", "setting": "HeLa cells [1]; 10 μM complex, 6 h", "value": "72 ± 2", "unit": "ng Pt/10^6 cells"}, {"measurement": "log P", "setting": "[2]", "value": "–1.7 ± 0.2"}, {"measurement": "amount of Pt associated with DNA", "setting": "[3]", "value": "2.0 ± 0.2", "unit": "pg Pt/µg DNA"}, {"measurement": "ATP secretion", "setting": "HeLa cells [4]", "value": "effective as well"}, {"measurement": "HMGB1 secretion", "setting": "HeLa cells [5]", "value": "effective as well"}, {"measurement": "externalization of calreticulin", "setting": "HeLa cells [6]", "value": "effective as well"}, {"measurement": "increase of tumor-cell phagocytosis", "setting": "[7]", "value": "roughly as effective as its Pt(IV) analogues 2–4"}, {"measurement": "in vivo antitumor activity, peritoneal carcinomatosis", "setting": "[8]", "value": "no antitumor activity"}, {"measurement": "in vivo anticancer effect, oral cancer xenograft", "setting": "oral cancer xenograft", "value": "potent anticancer effect"}]}, {"smiles": "O=C([O-])Cc1ccccc1Nc1c(Cl)cccc1Cl.[Na+]", "note": "[DCF, sodium {2-[(2,6-dichlorophenyl)amino]phenyl}-acetate, reference compound]", "values": [{"measurement": "IC50", "setting": "A2780cisR; Homo sapiens, A2780cisR, 72 h", "value": "138 ± 8", "unit": "µM"}, {"measurement": "IC50", "setting": "A2780; Homo sapiens, A2780, 72 h", "value": "238 ± 19", "unit": "µM"}, {"measurement": "IC50", "setting": "HCT-116; Homo sapiens, HCT-116, 72 h", "value": "211 ± 10", "unit": "µM"}, {"measurement": "IC50", "setting": "HeLa; Homo sapiens, HeLa, 72 h, read-out: IC50 HeLa", "value": "250 ± 22", "unit": "µM"}, {"measurement": "IC50", "setting": "HeLa; Homo sapiens, HeLa, read-out: HeLa (biological data CSV)", "value": "240 ± 15", "unit": "µM"}, {"measurement": "IC50", "setting": "MCF-7; Homo sapiens, MCF7, 72 h", "value": "259 ± 17", "unit": "µM"}, {"measurement": "IC50", "setting": "MDA-MB-231; Homo sapiens, MDA-MB-231, 72 h", "value": "187 ± 15", "unit": "µM"}, {"measurement": "IC50 at 72 h", "setting": "[9]", "value": "445 ± 36", "unit": "µM"}, {"measurement": "mitochondrial membrane potential Δψm (TMRE fluorescence)", "setting": "HeLa cells [10]", "value": "approximately the same effect"}, {"measurement": "inhibition of COX activity", "setting": "COX in HeLa cells", "value": "Inhibition of COX activity was also observed"}, {"measurement": "ATP secretion", "setting": "HeLa cells [4]", "value": "effective as well"}, {"measurement": "HMGB1 secretion", "setting": "HeLa cells [5]", "value": "effective as well"}, {"measurement": "externalization of calreticulin", "setting": "HeLa cells [6]", "value": "effective as well"}]}, {"smiles": "O=C1[O][Pt]2([NH][C@@H]3CCCC[C@H]3[NH]2)[O]C1=O", "note": "[oxaliplatin]", "values": [{"measurement": "tumor cell phagocytosis", "setting": "tumor cells", "value": "does not promote tumor cell phagocytosis"}]}]}
